Results published in patent publication US20250262186A1 (SANOFI, priority 2022, published 2025).

Biological target: T1, ERα (Homo sapiens, UniProt P03372)
T1 construct: made using a breast cancer cell ERα in cell western assay; host or cells: MCF7
T1 sequence (P03372 1-595): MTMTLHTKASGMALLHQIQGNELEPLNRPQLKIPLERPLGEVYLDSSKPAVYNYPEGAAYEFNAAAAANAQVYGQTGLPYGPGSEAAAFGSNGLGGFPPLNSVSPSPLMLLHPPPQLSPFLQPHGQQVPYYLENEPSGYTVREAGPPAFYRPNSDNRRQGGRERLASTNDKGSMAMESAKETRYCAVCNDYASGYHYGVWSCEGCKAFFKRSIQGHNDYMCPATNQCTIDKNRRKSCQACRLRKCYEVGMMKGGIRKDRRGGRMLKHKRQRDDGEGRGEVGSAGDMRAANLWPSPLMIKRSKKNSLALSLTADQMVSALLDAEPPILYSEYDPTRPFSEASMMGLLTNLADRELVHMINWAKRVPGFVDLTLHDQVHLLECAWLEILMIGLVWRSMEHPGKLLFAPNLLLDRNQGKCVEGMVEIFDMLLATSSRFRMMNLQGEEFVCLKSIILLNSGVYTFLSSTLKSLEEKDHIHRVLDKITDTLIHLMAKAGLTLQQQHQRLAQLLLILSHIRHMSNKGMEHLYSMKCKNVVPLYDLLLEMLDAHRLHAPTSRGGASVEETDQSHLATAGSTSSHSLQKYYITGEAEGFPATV
Test: Estrogen receptor degradation activity: breast cancer cell ERα in cell western assay in MCF7 cells
Format: cell-based
Conditions: 0.3 μM, 4 hours, relative to fulvestrant 0.1 μM positive control
Experimental: Said test involves measuring the in vitro degradation activity of the compounds of the Table 1a.
The measurements of the degradation activities were made using a breast cancer cell ERα in cell western assay as described hereunder.
MCF7 cells (ATCC) were seeded in 384 wells microplate (collagen coated) at a concentration of 10000 cells/30 μL per well in red phenol free MEM alpha medium (invitrogen) containing 5% charcoal dextran striped FBS. The following day, 9 points serial 1:5 dilution of each compound was added to the cells in 2.5 μL at final concentrations ranging from 0.3-0.0000018 μM (in table 2), or 0.1 μM for fulvestrant (using as positive control). At 4 hours post compound addition the cells were fixed by adding 25 μL of formalin (final concentration 5% formalin containing 0.1% triton) for 10 minutes at room temperature and then washed twice with PBS. Then, 50 μL of LI-COR blocking buffer containing 0.1% Triton was added to plate for 30 minutes at room temperature. LI-COR blocking buffer was removed and cells were incubated overnight at cold room with 50 μL anti-ER rabbit monoclonal antibody (Thermo scientific MA1-39540) diluted at 1:1000 in LI-COR blocking buffer containing 0.1% tween-20. Wells which were treated with blocking buffer but no antibody were used as background control. Wells were washed twice with PBS (0.1% tween-20) and incubated at 37° C. for 60 minutes in LI-COR (0.1% tween-20) containing goat anti-rabbit antibody Alexa 488 (1:1000) and Syto-64 a DNA dye (2 μM final concentration). Cells were then washed 3 times in PBS and scanned in ACUMEN explorer (TTP-Labtech). Integrated intensities in the green fluorescence and red fluorescence were measured to determine the levels of ERα and DNA respectively.
The degradation activity with respect to estrogen receptors in this test is given by the concentration which degrades 50% of the estrogen receptor (or IC50) in nM.
The % of ERα levels decrease were determined as follows: % inhibition=100*(1−(sample−fulvestrant: DMSO−fulvestrant)).

SMILES | % Degradation At 0.3 μM [%]
Cl.O=C(O)c1ccc2c(c1)CCCC(c1ccc(Cl)cc1Cl)=C2c1cccc(N[C@@H]2CCN(CCCF)C2)c1 [Compound 33, (R)-8-(2,4-dichlorophenyl)-9-(3-((1-(3-fluoropropyl)pyrrolidin-3-yl)amino)phenyl)-6,7-dihydro-5H-benzo[7]annulene-3-carboxylic acid hydrochloride] | 79
Cl.O=C(O)c1ccc2c(c1)OCCC(c1ccc(Cl)cc1Cl)=C2c1cccc(O[C@@H]2CCN(CCCF)C2)c1 [Compound 35, (R)-4-(2,4-dichlorophenyl)-5-(3-((1-(3-fluoropropyl)pyrrolidin-3-yl)oxy)phenyl)-2,3-dihydrobenzo[b]oxepine-8-carboxylic acid hydrochloride] | 65
FCCCN1CC[C@@H](Oc2cccc(C3=C(c4ccc(Cl)cc4Cl)CCCc4ccccc43)c2)C1 [Compound 38, (R)-3-(3-(8-(2,4-dichlorophenyl)-6,7-dihydro-5H-benzo[7]annulen-9-yl)phenoxy)-1-(3-fluoropropyl)pyrrolidine] | 66
FCCCN1CC[C@@H](Oc2cccc(C3=C(c4ccccc4Cl)CCCc4ccccc43)c2)C1 [Compound 39, (R)-3-(3-(8-(2-chlorophenyl)-6,7-dihydro-5H-benzo[7]annulen-9-yl)phenoxy)-1-(3-fluoropropyl)pyrrolidine] | 78
Cl.O=C(O)c1ccc2c(c1)CCC(c1ccc(Cl)cc1Cl)=C2c1cccc(O[C@@H]2CCN(CCCF)C2)c1 [Compound 40, (R)-6-(2,4-dichlorophenyl)-5-(3-((1-(3-fluoropropyl)pyrrolidin-3-yl)oxy)phenyl)-7,8-dihydronaphthalene-2-carboxylic acid hydrochloride] | 88
Oc1ccc2c(c1)SCCC(c1ccc(Cl)cc1Cl)=C2c1cccc(O[C@@H]2CCN(CCCF)C2)c1 [Compound 41, (R)-4-(2,4-dichlorophenyl)-5-(3-((1-(3-fluoropropyl)pyrrolidin-3-yl)oxy)phenyl)-2,3-dihydrobenzo[b]thiepin-8-ol] | 75
